Patent US4609725A, “Cardiac atrial peptides” (Merck & Co., Inc., priority 1984, dated 1986)
pIC50: −log10 of the molar value.

What was measured:
[1] = tested on: serotonin contracted rabbit aortae; format: cell-based
Source text: (§1) Under the conditions described above, conversion of non-iodinated ANF peptide fragment to the iodinated peptide was approximately 48%, based on the absorbance of the respective HPLC fractions and by amino acid analysis.

[2] = tested on: serotonin contracted rat aortae; format: cell-based
Source text: as §1

CC[C@H](C)[C@@H]1NC(=O)[C@H](CCCNC(=N)N)NC(=O)[C@H](CC(=O)O)NC(=O)[C@H]([C@@H](C)CC)NC(=O)[C@H](CCCNC(=N)N)NC(=O)CNC(=O)CNC(=O)[C@H](Cc2ccccc2)NC(=O)[C@@H](NC(=O)[C@H](CO)NC(=O)[C@H](CO)NC(=O)[C@H](CCCNC(=N)N)NC(=O)[C@@H](N)CCCNC(=N)N)CSSC[C@@H](C(=O)N[C@@H](CC(N)=O)C(=O)N[C@@H](CO)C(=O)N[C@@H](Cc2ccccc2)C(=O)N[C@@H](CCCNC(=N)N)C(=O)N[C@@H](Cc2ccc(O)c(I)c2)C(=O)O)NC(=O)CNC(=O)[C@H](CC(C)C)NC(=O)CNC(=O)[C@H](CO)NC(=O)[C@H](CCC(N)=O)NC(=O)[C@H](C)NC(=O)CNC1=O [iodinated ANF peptide fragment]
pIC50 [1]: 8.78 | extent of vasorelaxation ([1]; serotonin contracted rabbit aortae): complete vasorelaxation | pIC50 [2]: 8.98 | extent of vasorelaxation ([2]; serotonin contracted rat aortae): complete vasorelaxation
